Measurements taken from PubChem BioAssay (NCI).
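These data come from cells grown in 96-well plates and exposed to compound for 48 hours at five concentrations. The concentration for 50% growth inhibition is given as GI50. TGI denotes the concentration required for complete inhibition of growth.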

Assays:
Assay in all cases: inhibition of tumour cell growth, NCI panel, 48 h
[1] = test system: SNB-19 CNS
[2] = test system: MDA-MB-231 breast
[3] = test system: MCF7 breast
[4] = test system: NCI-H460 lung
[5] = test system: HL-60(TB) leukemia
[6] = test system: A498 renal
[7] = test system: A549 NSCLC
[8] = test system: MOLT-4 leukemia
[9] = test system: SF-295 CNS
[10] = test system: T-47D breast

Compound: COc1ccc(/C(C#N)=C/c2ccc(OC)c(OC)c2)cc1
- TGI [1]: > 100 µM
- TGI [2]: > 100 µM
- TGI [3]: > 100 µM
- TGI [4]: > 100 µM
- TGI [5]: > 100 µM
- TGI [6]: > 100 µM
- TGI [7]: > 100 µM
- TGI [8]: > 100 µM
- TGI [9]: > 100 µM
- TGI [10]: > 100 µM

Compound: CN(CC(=O)N(Cc1ccc(C2CCCCC2)cc1)c1ccc(C(=O)O)c(O)c1)S(=O)(=O)c1c(F)c(F)c(F)c(F)c1F
- GI50 [1]: 11.3 µM
- TGI [1]: 25.1 µM
- GI50 [2]: 1860 nM
- TGI [2]: 4.13 µM
- GI50 [3]: 3.56 µM
- TGI [3]: 15.1 µM
- GI50 [4]: 16.4 µM
- TGI [4]: 36.5 µM
- GI50 [5]: 2180 nM
- TGI [5]: 5.82 µM
- GI50 [6]: 13.2 µM
- TGI [6]: 26.1 µM
- GI50 [7]: 14.9 µM
- TGI [7]: 31.7 µM
- GI50 [8]: 3.12 µM
- TGI [8]: 12 µM
- GI50 [9]: 17.4 µM
- TGI [9]: 37.2 µM
- GI50 [10]: 8.14 µM
- TGI [10]: 27 µM

Compound: CCCCCCCCCc1cccc(N2C(N)=NC(N)=NC2(C)C)c1
- TGI [2]: 3.37 µM
- TGI [3]: > 100 µM
- TGI [4]: > 100 µM
- TGI [5]: 1.71 µM
- TGI [6]: 16.7 µM
- TGI [7]: 4.26 µM
- TGI [9]: 74.6 µM
- TGI [10]: 5.75 µM

Compound: COc1ccc(Cn2cc3c(c2-c2ccc(OC)cc2)CCc2cnoc2-3)cc1
- GI50 [1]: 0.679 µM
- TGI [1]: > 100 µM
- GI50 [2]: 1410 nM
- TGI [2]: > 53.7 µM
- GI50 [3]: 0.389 µM
- TGI [3]: > 100 µM
- GI50 [4]: 0.347 µM
- TGI [4]: 1.96 µM
- GI50 [5]: 282 nM
- TGI [5]: 1.17 µM
- GI50 [6]: 0.213 µM
- TGI [6]: 0.749 µM
- GI50 [7]: 0.582 µM
- TGI [7]: > 100 µM
- GI50 [8]: 0.504 µM
- TGI [8]: > 35 µM
- GI50 [9]: 0.27 µM
- TGI [9]: 0.96 µM
- GI50 [10]: 0.533 µM
- TGI [10]: > 100 µM

Compound: CCCCS(=O)(=O)CCC(N)C(=O)O (stereo not drawn)
- TGI [1]: > 100 µM
- TGI [2]: > 100 µM
- TGI [3]: > 100 µM
- TGI [4]: > 100 µM
- TGI [5]: > 100 µM
- TGI [6]: > 100 µM
- TGI [7]: > 100 µM
- TGI [8]: > 100 µM
- TGI [9]: > 100 µM
- TGI [10]: > 100 µM

Compound: COc1cc2c(cc1C)NC(=O)/C2=C\c1cccc(Oc2ccccc2)c1
- GI50 [1]: 14.3 µM
- TGI [1]: 28.1 µM
- GI50 [2]: 16300 nM
- TGI [2]: 37.4 µM
- GI50 [3]: 6.73 µM
- TGI [3]: 24 µM
- GI50 [4]: 12.9 µM
- TGI [4]: 27.2 µM
- GI50 [5]: 11900 nM
- TGI [5]: 26.8 µM
- GI50 [6]: 10.5 µM
- TGI [6]: 22.5 µM
- GI50 [7]: 20.6 µM
- TGI [7]: > 100 µM
- GI50 [8]: 6.23 µM
- TGI [8]: 21.8 µM
- GI50 [9]: 16.8 µM
- TGI [9]: 31.8 µM
- GI50 [10]: 11.4 µM
- TGI [10]: 81.4 µM

Compound: CC[C@@H](C(=O)[C@@H](C)[C@@H](O)[C@H](C)[C@@H]1O[C@@H]([C@@H](CC)C(=O)N(CC)CC)CC[C@@H]1C)C1O[C@]2(C=CC(=O)[C@]3(CC[C@@](C)([C@H]4CC[C@](O)(CC)[C@H](C)O4)O3)O2)[C@H](C)C[C@@H]1C (stereo partly drawn)
- GI50 [1]: 3.31 µM
- TGI [1]: > 100 µM
- GI50 [2]: 1690 nM
- TGI [2]: 3.33 µM
- GI50 [3]: 2.41 µM
- TGI [3]: 8.11 µM
- GI50 [4]: 2.11 µM
- TGI [4]: 4.94 µM
- GI50 [5]: 2160 nM
- TGI [5]: 4.95 µM
- GI50 [6]: 2.25 µM
- TGI [6]: 7.51 µM
- GI50 [7]: 3.21 µM
- TGI [7]: > 100 µM
- GI50 [8]: 2.66 µM
- TGI [8]: 8.06 µM
- GI50 [9]: 2.26 µM
- TGI [9]: 6.51 µM
- GI50 [10]: 2.59 µM
- TGI [10]: 9.44 µM

Compound: Nc1nc(-c2ccc(F)cc2)c(-c2ccc3ncccc3n2)s1
- GI50 [1]: > 25 µM
- TGI [1]: > 25 µM
- GI50 [2]: > 25000 nM
- TGI [2]: > 25 µM
- GI50 [3]: 9 µM
- TGI [3]: > 25 µM
- GI50 [4]: 8.7 µM
- TGI [4]: > 25 µM
- GI50 [5]: > 25000 nM
- TGI [5]: > 25 µM
- GI50 [6]: 3.83 µM
- TGI [6]: 19.4 µM
- GI50 [7]: 13.7 µM
- TGI [7]: > 25 µM
- GI50 [8]: 17.4 µM
- TGI [8]: > 25 µM
- GI50 [9]: > 21 µM
- TGI [9]: > 25 µM
- GI50 [10]: 4.32 µM
- TGI [10]: > 25 µM
